Our source for the GI50 and TGI values is PubChem BioAssay (NCI).

Common to all, as to experiment: NCI tumour cell line growth inhibition, 48 h
In assay [1] the test system is ACHN renal.
The test system of assay [2] is OVCAR-3 ovarian.
The test system of assay [3] is NCI-H460 lung.
The test system of assay [4] is NCI-H522 lung.
The subject of assay [5] is NCI-H23 lung.
Assay [6] relates to SF-539 CNS.
Assay [7] deals with EKVX NSCLC.
For assay [8], the system named is LOX IMVI melanoma.
Assay [9] has as its system RPMI-8226 leukemia.
The subject of assay [10] is HCT-116 colon.

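A five-concentration, 48-hour dose response in 96-well plates underlies each endpoint, interpolated linearly between surrounding concentrations. GI50 marks 50% less growth. TGI is the concentration that stops growth completely.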 Where only a bound is given, the exact number is not on record here.

With `COc1ccc(CNc2nc(NCc3ccc(OC)cc3)c3n[nH]c(C(C)C)c3n2)cc1`, the GI50 is 7.6 µM in assay [1]; 3.04 µM in [2]; 2.98 µM in assay [3]; 2.26 µM in assay [4]; 4.09 µM in assay [5]; 5.98 µM in assay [6]. Moreover, the GI50 in assay [7] was 8.09 µM; in assay [8], 4.45 µM; in assay [9], 3.27 µM; in assay [10], 4.06 µM. The TGI amounted to 20.7 µM in assay [1]; 14.5 µM in [2]; 31.8 µM in assay [3]; 4.51 µM in assay [4]; 18.3 µM in assay [5]; 23.5 µM in assay [6]. Further, the TGI in [7] turned out to be 23.8 µM; in assay [8] it was 17.3 µM; in assay [9], 12.5 µM; in [10], 22.6 µM.

With `CC1=C(C(=O)Nc2ccccc2C)C(c2ccc(C3C(C(=O)Nc4ccccc4C)=CNC=C3C(=O)Nc3ccccc3C)cc2)C(C(=O)Nc2ccccc2C)=C(C)N1`, the TGI in [1] is 30.6 µM; in [2], 39.5 µM; in assay [3], 48 µM; in assay [4], 18.9 µM; in assay [5], 36.5 µM; in assay [6], 19.6 µM. Also, the TGI was 40.7 µM in [7], 21.7 µM in [8], greater than 73 µM in [9] and greater than 49.7 µM in assay [10].

Take `COc1cc(-c2cc(CCC(=O)Nc3ccccc3[N+](=O)[O-])n(-c3ccc([N+](=O)[O-])cc3[N+](=O)[O-])n2)ccc1O`: the GI50 was greater than 10 µM in [1]; greater than 100 µM in assay [3]; greater than 100 µM in assay [4]; greater than 100 µM in assay [5]; greater than 100 µM in assay [6]; greater than 100 µM in assay [7]. Besides, the GI50 in assay [8], in assay [9] and in assay [10] was greater than 100 µM each time. Further, the TGI in assay [1] was greater than 100 µM; in [2], greater than 10 µM; in assay [3], greater than 100 µM; in assay [4], greater than 100 µM; in [5] it was greater than 100 µM; in assay [6] it was greater than 100 µM. Besides, the TGI in assay [7], in [8], in [9] and in assay [10] was greater than 100 µM throughout.

`O=C(CN1CCN(c2ccc(Cl)cc2)CC1)N1CCN(c2nnc(-c3ccccc3)c(-c3ccccc3)n2)CC1`: the GI50 was 5.07 µM in assay [1]; 8.38 µM in assay [2]; 4.97 µM in assay [3]; 16.2 µM in [4]; 4 µM in assay [5]; 7.65 µM in assay [6]. Moreover, the GI50 in assay [7] was 7.57 µM; in assay [8], 7.26 µM; in assay [9], 2.77 µM; in assay [10], 3.42 µM. Besides, the TGI in assay [1], in assay [2], in assay [3], in assay [4], in assay [5] and in [6] was greater than 100 µM throughout. Also, the TGI in assay [7], in assay [8], in [9] and in assay [10] was greater than 100 µM throughout.
